Assay results from publication PMC12621189, “Optimization of Selective and CNS Penetrant Alkyne-Based TREK Inhibitors: The Discovery and Characterization of ONO-9517601 (VU6022856) and ONO-7927846 (VU6024391)” (Journal of Medicinal Chemistry, 2025).

What was measured:
[1] = Rat brain to plasma ratio (Kp, Kp,uu); format: in vivo; conditions: male, Sprague Dawley, intravenous, 0.2 mg/kg; for Kp at 15 min: brain and plasma, rat brain:plasma; for Kp uu at 15 min: brain and plasma (unbound), rat unbound brain:unbound plasma
Protocol: Determination of brain to plasma ratio:
All animal study procedures were approved by the Institutional Animal Care and Use Committee and were conducted in accordance with the National Institutes of Health regulations of animal care covered in Principles of Laboratory Animal Care (National Institutes of Health). All rats were fasted overnight prior to testing.
For determination of the brain over plasma ratio (Kp), compounds were formulated in 8% ethanol, 32% PEG400 and 60% DMSO (v/v/v) and administered as a single 0.2 mg/kg IV dose (1 mL/kg) to male, Sprague Dawley rats (n = 1) via injection into a surgically-implanted jugular vein catheter. At 15 min post dosing, blood sample was collected into chilled, K2EDTA anticoagulant-fortified tube and immediately placed on wet ice. The blood sample was then centrifuged (1700 rcf, 5 minutes, 4 °C) to obtain plasma sample. At the same post-administration time point, whole brain sample was obtained by rapid dissection, rinsed with PBS, and immediately frozen in individual tissue collection box (dry ice). All brain and plasma samples were stored at -80 °C until […]
Sample Analysis: Concentrations in plasma and brain homogenates were quantified by liquid chromatography tandem mass spectrometry (LC-MS/MS). Whole brains were homogenized in 3 mL of 70:30 IPA:water in a mini bead beater for 3 min, and centrifuged at 3,500 g for 5 min. 5 uL of the supernatant was diluted in 15 uL of blank plasma for quantification of the analytes. Plasma samples were centrifuged at 3,500 g for 5 min. A standard curve was generated by diluting the analytes DMSO stocks with blank plasma to obtain a final concentration of 10,000 ng/ml followed by a serial dilution down to 0.5 ng/ml. Quality controls were generated by a serial dilution of the 5,000 ng/ml standard curve solution in blank plasma to obtain 3 concentrations of 500, 50, and 5 ng/ml. 20 uL of brain diluted in plasma, plasma, blank plasma, standard curve and QC samples were loaded in a V-bottom 96-well plate. 120 uL of acetonitrile containing 0.05 uM carbamazepine (internal standard) was added to each well and the plate was centrifuged at 3,500 g for 5 min. 60 uL of the supernatant of each well (protein free) was transferred to a new 96-well plate containing 60 uL of water. The plates were sealed for analysis by LC-MS/MS.
Plasma and brain tissue samples originating from in vivo studies were analyzed by electrospray ionization using an AB Sciex Q-TRAP 5500 (Foster City, CA) that was coupled to a Shimadzu LC-20AD pump (Columbia, MD) and a Leap Technologies CTC PAL auto-sampler (Carrboro, NC). Analytes were separated by gradient elution using a C18 column (3 x 50 mm, 3 mm; Fortis Technologies Ltd, Cheshire, UK) that was thermostated at 40 °C. HPLC mobile phase A was 0.1% formic acid in water (pH unadjusted); mobile phase B was 0.1% formic acid in acetonitrile (pH […]
min, with an isocratic hold for 0.5 min, before transitioning to 10% B over 0.05 min. The column was re-equilibrated (1 min) before the next sample injection. The total run time was 2.55 min, and the HPLC flow rate was 0.5 ml/min. The source temperature was set at 500 °C, and mass spectral analyses were performed using a Turbo-Ion spray source in positive ionization mode (5.0-kV spray voltage) and using multiple-reaction monitoring of transitions specific for the analytes. All data were analyzed using AB Sciex Analyst 1.5.1 software.
Brain plasma concentration ratio (Kp) was calculated by dividing brain concentration by plasma concentration for each animal. Unbound brain to unbound plasma concentration ratio (Kp,uu) is calculated using the following formula: Kp,uu = (Brain ng/g x brain fu)/(plasma ng/ml x plasma fu).
In-vitro determination of blood-brain barrier penetration potential
Blood-brain barrier penetration was determined using MDR1-MDCK cell monolayers by Absorption Systems, following their protocol. In short, compounds were incubated at […] final concentration on one side of the cell monolayer for 2 hours. […]

[2] = Plasma protein binding, rat; format: in vitro ADME; conditions: bound; for fraction unbound at 6 h, 5 µM: rat, plasma, pH 7.4, rat plasma, read-out: PPB rat (converted)
Protocol: Plasma protein binding and Brain homogenate binding: Determination of fraction unbound (f u) in plasma was conducted in vitro via equilibrium dialysis using HTDialysis (HTD) membrane plates. The top half of the plate was filled with 100 uL of Dubelco’s Phosphate Buffered Saline, pH 7.4 (DPBS). Compounds were diluted into plasma from each species (5 µM final concentration), which was aliquoted in triplicate to the ‘bottom half’ of the prepared HTD plate wells. The HTD plate was sealed and incubated for 6 hours at 37 °C. Following incubation, each well (both top and bottom halves) were transferred (20 µL) to the corresponding wells of a 96-shallow-well (V-bottom) plate. The daughter plates were then matrix-matched (DPBS side wells received equal volume of plasma, and plasma side wells received equal volume of DPBS), and extraction solution (120 µL; acetonitrile containing 50 nM carbamazepine as IS) was added to all wells of both daughter plates to precipitate protein and extract test article. The plates were then sealed and centrifuged (3500 rcf) for 10 minutes at ambient temperature. Supernatant (60 µL) from each well of the daughter plates was then transferred to the corresponding wells of new daughter plates (96-shallow-well, V bottom) containing water (Milli-Q, 60 µL/well), and the plates were sealed in preparation for LC-MS/MS analysis (see LC-MS/MS analysis method below).
The unbound fraction (f u) was calculated following the equation below, and mean values for each species were calculated from 3 replicates. […]
Fraction unbound for both plasma and brain samples was determined using Equation 4.
Equation 4 Determination of fraction unbound in plasma. […]

[3] = Liver microsome intrinsic clearance, rat; format: in vitro ADME; conditions: for CLint scaled at 1 µM: pH 7.4, rat liver microsomes, predicted intrinsic clearance, read-out: LMS CLINT rat; for Predicted CLhep rat: from microsomal CLint
Protocol: were incubated in 100 mM potassium phosphate pH 7.4 buffer with 3 mM MgCl2 at 37 °C with constant shaking. After a 5 min preincubation, the reaction was initiated by the addition of NADPH (1 mM). At selected time intervals (0, 3, 7, 15, 25, and 45 min), aliquots were taken and subsequently placed into a 96-well plate containing cold acetonitrile with internal standard (50 ng/mL carbamazepine). Plates were then centrifuged at 3000 rcf (4 °C) for 10 min, and the supernatant was transferred to a separate 96-well plate and diluted 1:1 with water for LC/MS/MS analysis. The in vitro half-life ( 1/2, min, Eq. 1), intrinsic clearance (CLint, mL/min/kg, Eq. 2), and subsequent predicted hepatic clearance (CLhep, mL/min/kg, Eq. 3) was determined employing the […]
where k represents the slope from linear regression analysis of the natural log percent remaining of a test compound as a function of incubation time […]
(2) CLint = in vitroT x mg microsomes x gram liver x kg body wt ascale-up factors: of 20 (human) or 45 (rat) […]
where Qh (hepatic blood flow, mL/min/kg) is 21 (human) or 70 (rat).
LC/MS/MS Bioanalysis of Samples from Plasma Protein Binding and Intrinsic Clearance […]
Samples were analyzed on a Thermo Electron TSQ Quantum Ultra triple quad mass spectrometer (San Jose, CA) via electrospray ionization (ESI) with two Themo Electron Accella pumps (San Jose, CA), and a Leap Technologies CTC PAL autosampler (Carrboro, NC). Analytes were […]

PPB rat ([2]; rat plasma)	Structure (SMILES)	Kp at 15 min [1]	fraction unbound at 6 h, 5 µM [2]	Kp uu at 15 min [1]	CLint scaled at 1 µM [3]	Predicted CLhep rat [3]
	Cc1cc(C#Cc2ccccc2)cnc1NC(=O)c1cc(OC[C@@H]2COCCO2)ccc1Cl [Compound 7, (S)-5-((1,4-Dioxan-2-yl)methoxy)-2-chloro-N-(3-methyl-5-(phenylethynyl)pyridin-2-yl)benzamide]	0.86				
	CC(=O)N1CCC(n2ncc(Cl)c2C(=O)Nc2ncc(C#Cc3ccccc3)cc2C)CC1 [Compound 10, 1-(1-Acetylpiperidin-4-yl)-4-chloro-N-(3-methyl-5-(phenylethynyl)pyridin-2-yl)-1H-pyrazole-5-carboxamide]	2.7	0.013	1	62 mL/min/kg	32.9 mL/min/kg
	CC(=O)N1CC[C@@H](n2ncc(Cl)c2C(=O)Nc2ncc(C#Cc3ccc(F)cc3)cc2C)[C@H](F)C1 [Compound 11, 1-((3R,4R)-1-Acetyl-3-fluoropiperidin-4-yl)-4-chloro-N-(5-((4-fluorophenyl)ethynyl)-3-methylpyridin-2-yl)-1H-pyrazole-5-carboxamide]	1.5	0.083	0.1	40 mL/min/kg	25.4 mL/min/kg
98.1%	Cc1cc(C#Cc2ccccc2)cnc1NC(=O)c1c(Cl)cnn1[C@H]1CCOC1 [Compound 15a, (S)-4-Chloro-N-(3-methyl-5-(phenylethynyl)pyridin-2-yl)-1-(tetrahydrofuran-3-yl)-1H-pyrazole-5-carboxamide]	2.8	~0.02		49 mL/min/kg	
